Measured values from ChEMBL document CHEMBL1132672, “Substituted 7H-pyrido[4,3-c]carbazoles with potent anti-HIV activity” (Bioorg Med Chem Lett, 1999).
Converted amounts (≈) assume the structure as drawn.

Legend:
H9 [1] = assay: Inhibitory concentration required to inhibit uninfected H9 lymphocytic cell growth by 50%; assay type: functional, cell-based; conditions: Homo sapiens
[2] = Therapeutic index(TI) was evaluated (IC50/EC50); conditions: read-out: TI
H9 [3] = assay: Inhibitory concentration required to inhibit HIV replication in H9 lymphocytes growth by 50%; assay type: functional, cell-based; conditions: Homo sapiens

Compound	IC50 (H9 [1])	selectivity ratio [2]	EC50 (H9 [3])
COc1cc2c(c3cnccc13)c1ccccc1n2C	2.7 µg/mL (≈ 10.3 µM)	503	0.0054 µg/mL (≈ 0.0206 µM)
COc1cc2c(c3ccccc3n2C)c2c(NCCCO)nccc12	0.15 µg/mL (≈ 0.447 µM)	153	0.001 µg/mL (≈ 0.00298 µM)
COc1cc2c(c3ccccc3n2C)c2c(Cl)nccc12	26 µg/mL (≈ 87.6 µM)	136	0.19 µg/mL (≈ 0.64 µM)
COc1cc2c(c3ccccc3n2C)c2c(NCCN)nccc12	0.23 µg/mL (≈ 0.718 µM)	10.6	0.022 µg/mL (≈ 0.0687 µM)
COc1cc2c(c3ccccc3n2C)c2c(NCCN3CCCCC3)nccc12	0.24 µg/mL (≈ 0.618 µM)	47.9	0.005 µg/mL (≈ 0.0129 µM)
COc1cc2c(c3cc(O)ccc3n2C)c2c(Cl)nccc12	5 µg/mL (≈ 16 µM)	3.6	1.4 µg/mL (≈ 4.48 µM)
COc1cc2c(c3ccccc3n2C)c2c(NCCN(C)C)nccc12	0.23 µg/mL (≈ 0.66 µM)	8.9	0.026 µg/mL (≈ 0.0746 µM)
